From patent US5681691A, “Photographic element containing an improved pyrazolotriazole coupler” (Eastman Kodak Company, priority 1996, dated 1997)

Assays:
[1] = Green pH sensitivity of gamma in multilayer film (format ML-A), normalized to C-1; details: for pH Sensitivity: multilayer film ML-A, developer pH 9.95 to 10.15, relative normalized pH sensitivity of green gamma vs C-1
From the text: The formulas for the multilayer organic components are provided following the examples. The multilayer format used was an ISO 200 speed format (designated ML-A).
Table 4 indicates the experiment number, whether it is a comparative or inventive example, the magenta coupler used in the designated green sensitive layers and the laydown in each of those layers.
To measure the green pH sensitivity of a multilayer film, the following was done. A neutral stepped exposure was applied to nine 35-mm strips of the film. One strip was processed with the normal C-41 process. The other eight strips were processed in a 2**3 factorial design in which the pH of the developer solution was varied from 9.95 to 10.15, the bromide was varied from 0.8 g/L to 1.8 g/L, and the concentration of the developer was varied from 3.5 g/L to 5.5 g/L. The green Status M photographic D-logE gammas were measured for each film at mid-exposure, and each gamma was normalized by dividing by the average gamma for all nine strips.
The nine normalized gammas that were obtained at the nine combinations of pH, Br, and developer concentration were used as input to a least-squares regression in which normalized gamma was the response, and the factors were pH, Br, and developer concentration in a linear model with an intercept. The coefficient of pH is the sensitivity of normalized gamma to pH, and this was further normalized (divided) by the sensitivity of the comparison coupler C-1 (Table 2) that was processed at the same time as each test coupler.

[2] = Activity of image coupler in single layer film (maximum slope relative to control coupler C-1); details: developer pH=10, ratio to maximum slope of C-1 control, higher ratio implies higher activity
Description: (§1) The emulsion was an undyed, but chemically sensitized, 0.7 micron polymorphic silver iodobromide emulsion containing 3.5% mole of iodide. The coating structure is shown below.
(§2) Monolayer coatings were panchromatically exposed and processed in developer solutions of different pH values. A stop bath was used to eliminate any complications due to the continuing coupling reaction. The processing procedure and solution formulations are listed below.
Further single layer film elements were prepared as above, given a stepped exposure and processed (developer pH=10). The activity of an image coupler was determined by determining the maximum slope between any two adjacent steps for the coupler and dividing by the maximum slope of a corresponding control sample containing coupler C-1 processed at the same time as the sample. A higher ratio implies higher activity. The logP of the R3 fragment (a quantity also referred to as π) was calculated as described in the Detailed Description of the invention.

[3] = pH sensitivity of gamma in single layer film, normalized to C-1; details: developer pH 9.75, 10, 10.37, normalized by division with pH sensitivity of C-1
From the text: To measure the pH sensitivity of a single layer film, the following was done. A stepped exposure was applied to three identical strips of the film. One strip was processed with the normal C-41 process at pH of about 10. A second strip was processed in the same developer in which the pH was decreased to 9.75, while the third strip was processed in the same developer in which the pH was increased to 10.37.
as §1, §2
The D-logE Status M gamma was measured for each film and the three gammas were used as input to a least-squares regression in which gamma was the response, and the factors were pH and pH-squared in a linear model with an intercept. Before regression, the three pH values were shifted (centered) to have a mean of zero (-0.31, 0, 0.31). The coefficient of the main effect, pH, in the regression is the pH sensitivity of gamma, which was normalized by division with the pH sensitivity of the comparison coupler C-1 (Table 2) that was processed at the same time as each test coupler.

Q: For `CCCCCCCCCCCCCCCCCCCCCC(=O)N(c1cccc(C(=O)O)c1)C(CC)c1n[nH]c2c(Cl)c(C)nn12` (centres unmarked) [Mag-11], which “pH Sensitivity” value [1] is on record?
A: 0.56

Q: For `CCCCCCCCCCCCCCCC(=O)N(Cc1ccc(C(=O)O)cc1)C(C)c1n[nH]c2c(Cl)c(C)nn12` (centres unmarked) [Mag C-5], which Activity [2] is on record?
A: 1.34

Q: And the “pH Sensitivity” value [3]?
A: 1.32

Q: For `CCCCCCCCCCCCCCCCCCCCCC(=O)N(c1cccc(C(=O)O)c1)C(C)c1n[nH]c2c(Cl)c(C)nn12` (centres unmarked) [Mag-1], which Activity [2] is on record?
A: 1.50

Q: What about the “pH Sensitivity” value [3] of the same compound?
A: 0.83

Q: And the “pH Sensitivity” value [1]?
A: 0.52

Q: For `CCCCCCCCCCCCC(Oc1ccc(C(C)(C)CC(C)(C)C)cc1)C(=O)N(c1cccc(C(=O)O)c1)C(C)c1n[nH]c2c(Cl)c(C)nn12` (centres unmarked) [Mag-6], which Activity [2] is on record?
A: 1.15

Q: And the “pH Sensitivity” value [3]?
A: 0.75

Q: Which results are given for `CCCCCC(=O)N(c1cccc(C(=O)O)c1)C(C)c1n[nH]c2c(Cl)c(C)nn12` (centres unmarked) [Mag C-15]?
A: pH Sensitivity [1]: 0.41; magenta dye formed from coupler remaining in the film after processing ([1]; multilayer, solubility and washout of its magenta dye): very little

Q: Which Activity [2] does the source give for `CCCCCCCCCCCCCCCC(=O)N(c1cccc(CC(=O)O)c1)C(c1ccccc1)c1n[nH]c2c(Cl)c(C)nn12` (centres unmarked) [Mag C-8] here?
A: 1.26

Q: What about the “pH Sensitivity” value [3] of the same compound?
A: 1.43

Q: Which Activity [2] does the source give for `CCCCCCCCCCCCCCCCCCCCCC(=O)N(c1cccc(C(=O)OC)c1)C(C)c1n[nH]c2c(Cl)c(C)nn12` (centres unmarked) [Mag C-14] here?
A: 0.43

Q: What about the Activity ([2]; listed as SL-11) of the same compound?
A: substantial loss of activity

Q: Which results are given for `CCCCCCCCCCCCCCCc1cccc(OC(CCCC)C(=O)N(c2cccc(C(=O)O)c2)C(C)c2n[nH]c3c(Cl)c(C)nn23)c1` (centres unmarked) [Mag-7]?
A: Activity [2]: 1.22; pH Sensitivity [3]: 0.83; pH Sensitivity [1]: 0.59

Q: Which Activity [2] does the source give for `CCCCCCCCCCCCCCCC(=O)N(c1ccc(CC(=O)O)cc1)C(c1ccccc1)c1n[nH]c2c(Cl)c(C)nn12` (centres unmarked) [Mag C-4] here?
A: 0.87

Q: What about the “pH Sensitivity” value [3] of the same compound?
A: 1.32

Q: Which results are given for `CCCCCCCCCCCCCCCCCC(=O)N(CCCCCC(=O)O)C(C)c1n[nH]c2c(Cl)c(C)nn12` (centres unmarked) [Mag C-7]?
A: Activity [2]: 1.04; pH Sensitivity [3]: 1.32

Q: For `CCCCCCCCCCCCCCCCCCCC(=O)N(CCCC(=O)O)C(c1ccccc1)c1n[nH]c2c(Cl)c(C)nn12` (centres unmarked) [Mag C-12], which Activity [2] is on record?
A: 0.91

Q: What about the “pH Sensitivity” value [3] of the same compound?
A: 0.75

Q: With `CCCCCCCCCCCCCCCC(=O)N(c1cccc(C(=O)O)c1)C(C)c1n[nH]c2c(Cl)c(C)nn12` (centres unmarked) [Mag C-10] as the compound, how does the Activity [2] read?
A: 1.52

Q: What about the “pH Sensitivity” value [3] of the same compound?
A: 0.51

Q: And the “pH Sensitivity” value [1]?
A: 0.66

Q: For `CCCCCCCCCCCCCCCCCC(=O)N(c1cccc(C(=O)O)c1)C(C)c1n[nH]c2c(Cl)c(C)nn12` (centres unmarked) [Mag C-11], which Activity [2] is on record?
A: 1.33

Q: And the “pH Sensitivity” value [3]?
A: 1.05

Q: What about the “pH Sensitivity” value [1] of the same compound?
A: 0.63

Q: Which Activity [2] does the source give for `CCCCCCCCCCCCC(c1n[nH]c2c(Cl)c(C)nn12)N(C(=O)CCCCC)c1cccc(C(=O)O)c1` (centres unmarked) [Mag C-13] here?
A: 1.33

Q: Which results are given for `CCCCCCCCCCC(Oc1ccc(S(=O)(=O)c2ccc(O)cc2)cc1)C(=O)Nc1ccc(CCCc2n[nH]c3c(Cl)c(C)nn23)cc1` (centres unmarked) [Mag C-2]?
A: Activity [2]: 0.51; pH Sensitivity [3]: 1.39

Q: For `CCCCCCCCCCCCC(c1n[nH]c2c(Cl)c(C)nn12)N(CCCCCCCC)C(=O)CCC(=O)O` (centres unmarked) [Mag C-1], which Activity [2] is on record?
A: 1.00

Q: And the “pH Sensitivity” value [3]?
A: 1.00

Q: And the “pH Sensitivity” value [1]?
A: 1.00
